Where two headings read alike, the source gives them in different places.
Experiments:
ENPP-1 ECD = ENPP-1 ECD (Homo sapiens (Human), UniProt P22413); assay: Assay 2: inhibition of ENPP1 hydrolysis of 2′,3′-cGAMP (AMP-Glo, […] enzyme); conditions: inhibition of ENPP1 hydrolysis of 2′,3′-cGAMP, no unit in Table 18 (Table 17 legend for this assay uses nM)
Experimental: Assay 2: Compared to the conditions in Assay 1, this assay has a larger dynamic range and ensures the system is under steady-state conditions by reducing the enzyme concentration in the assay.
Test compounds were plated in a 3× dilution scheme in a 384 well plate. […] AMP Detection solution (10 μL) was added to each well, the plate centrifuged and incubated for 60 min.

[1] = biological target: ENPP1 on MDA-MB-231 cells (Homo sapiens (Human), UniProt P22413); assay: Assay 3: inhibition of ENPP1 hydrolysis of AMP p-nitrophenyl ester on MDA-MB-231 cells
[2] = read-out: Assay 3 (KI, app), apparent KI from IC50 via Cheng/Prusoff, pNP-AMP […], MDA-MB-231 cells, pH 7.4, 37° C., 3 h, unit inferred

Sequence of ENPP-1 ECD (P22413 98-925): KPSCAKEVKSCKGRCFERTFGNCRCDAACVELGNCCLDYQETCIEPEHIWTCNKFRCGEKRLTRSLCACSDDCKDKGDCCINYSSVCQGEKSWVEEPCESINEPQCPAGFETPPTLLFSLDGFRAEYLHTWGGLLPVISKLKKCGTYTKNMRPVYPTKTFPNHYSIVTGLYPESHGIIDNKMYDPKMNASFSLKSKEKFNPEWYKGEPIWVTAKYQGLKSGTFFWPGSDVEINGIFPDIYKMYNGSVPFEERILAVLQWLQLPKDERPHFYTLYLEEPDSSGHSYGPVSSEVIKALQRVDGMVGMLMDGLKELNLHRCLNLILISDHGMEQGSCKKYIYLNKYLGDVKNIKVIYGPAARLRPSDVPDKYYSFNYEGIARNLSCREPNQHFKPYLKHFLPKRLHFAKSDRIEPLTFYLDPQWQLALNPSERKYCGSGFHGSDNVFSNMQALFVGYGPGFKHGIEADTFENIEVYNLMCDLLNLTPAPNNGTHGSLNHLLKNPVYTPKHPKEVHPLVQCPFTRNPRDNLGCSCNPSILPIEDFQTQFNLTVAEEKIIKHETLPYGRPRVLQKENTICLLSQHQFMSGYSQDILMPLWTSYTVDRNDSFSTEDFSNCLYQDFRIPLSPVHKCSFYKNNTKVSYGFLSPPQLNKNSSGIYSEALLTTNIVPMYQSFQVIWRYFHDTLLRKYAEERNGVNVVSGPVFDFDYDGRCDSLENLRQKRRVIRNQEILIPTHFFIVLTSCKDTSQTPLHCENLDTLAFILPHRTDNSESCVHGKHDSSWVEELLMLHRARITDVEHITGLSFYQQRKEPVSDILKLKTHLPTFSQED
Sequence of ENPP1 on MDA-MB-231 cells (P22413 whole entry): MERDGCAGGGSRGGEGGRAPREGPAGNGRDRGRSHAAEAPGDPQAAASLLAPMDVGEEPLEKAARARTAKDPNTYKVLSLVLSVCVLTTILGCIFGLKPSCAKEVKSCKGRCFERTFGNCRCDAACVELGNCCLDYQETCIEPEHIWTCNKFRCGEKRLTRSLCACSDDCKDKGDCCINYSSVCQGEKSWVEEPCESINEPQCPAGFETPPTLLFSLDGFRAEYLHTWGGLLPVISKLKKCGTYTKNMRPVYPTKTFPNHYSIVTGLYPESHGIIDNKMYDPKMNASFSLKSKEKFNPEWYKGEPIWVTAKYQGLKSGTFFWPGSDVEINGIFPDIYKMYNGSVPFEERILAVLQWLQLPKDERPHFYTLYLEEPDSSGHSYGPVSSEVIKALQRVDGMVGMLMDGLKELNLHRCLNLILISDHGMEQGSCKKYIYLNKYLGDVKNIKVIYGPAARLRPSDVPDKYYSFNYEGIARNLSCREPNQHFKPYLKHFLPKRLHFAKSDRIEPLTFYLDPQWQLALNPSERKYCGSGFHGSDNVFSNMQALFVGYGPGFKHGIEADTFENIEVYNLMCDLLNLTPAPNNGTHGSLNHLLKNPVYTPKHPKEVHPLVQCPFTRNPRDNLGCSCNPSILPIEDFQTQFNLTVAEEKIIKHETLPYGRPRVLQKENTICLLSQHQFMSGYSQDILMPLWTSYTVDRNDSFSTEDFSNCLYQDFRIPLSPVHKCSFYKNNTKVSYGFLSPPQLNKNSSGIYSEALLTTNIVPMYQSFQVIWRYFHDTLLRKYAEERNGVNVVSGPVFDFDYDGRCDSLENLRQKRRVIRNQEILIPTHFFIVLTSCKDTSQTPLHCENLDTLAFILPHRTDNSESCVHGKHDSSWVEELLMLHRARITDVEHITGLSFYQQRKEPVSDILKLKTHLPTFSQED

Row | Ki (ENPP-1 ECD; Assay 2 (KI)) [nM] | Ki [1] [nM] | Ki (ENPP-1 ECD; read-out: Assay 2 (KI)) [nM] | Ki [1, 2] [nM] | SMILES
1 | 0.014 | 0.2 | – | – | COc1cccc2c(N3CCC(O)(CS(C)(=N)=O)CC3)c(C#N)cnc12 (stereo not drawn) [Compound 198, 4-(4-hydroxy-4-{[imino(methyl)oxo-λ^6-sulfanyl]methyl}piperidin-1-yl)-8-methoxyquinoline-3-carbonitrile]
2 | – | – | 0.0025 | 0.086 | COc1cccc2c(N3CCC(O)(C[S@@](C)(=N)=O)CC3)c(C#N)cnc12 [Compound 198a]
3 | 0.43 | 8.8 | – | – | COc1cccc2c(N3CCC(O)(CS(C)(=N)=O)CC3)nc(C)nc12 (stereo not drawn) [Compound 199, {[4-hydroxy-1-(8-methoxy-2-methylquinazolin-4-yl)piperidin-4-yl]methyl}(imino)methyl-λ^6-sulfanone]
4 | 0.019 | 0.41 | – | – | CS(=N)(=O)CC1CCN(c2c(C#N)cnc3c(OCF)cccc23)CC1 (stereo not drawn) [Compound 200, 8-(fluoromethoxy)-4-(4-{[imino(methyl)oxo-λ^6-sulfanyl]methyl}piperidin-1-yl)quinoline-3-carbonitrile]
5 | 0.69 | 12 | – | – | COc1cccc2c(N3CCC(CS(C)(=N)=O)CC3)c(C#N)c(C)nc12 (stereo not drawn) [Compound 201, 4-(4-{[imino(methyl)oxo-λ^6-sulfanyl]methyl}piperidin-1-yl)-8-methoxy-2-methylquinoline-3-carbonitrile]
6 | 0.032 | 2.2 | – | – | COc1cc2nccc(N3CCC4(CC3)CCN(S(C)(=N)=O)C4)c2cc1F (stereo not drawn) [Compound 205, [8-(6-fluoro-7-methoxyquinolin-4-yl)-2,8-diazaspiro[4.5]decan-2-yl](imino)methyl-λ^6-sulfanone]
7 | – | – | 0.0057 | 0.12 | COc1cc2nccc(N3CCC4(CC3)CCN([S@@](C)(=N)=O)C4)c2cc1F [Compound 205b]
8 | 0.037 | 3.3 | – | – | COc1cc2ncnc(N3CCC4(CCN(S(C)(=N)=O)CC4)C3)c2cc1OC (stereo not drawn) [Compound 207, [2-(6,7-dimethoxyquinazolin-4-yl)-2,8-diazaspiro[4.5]decan-8-yl](imino)methyl-λ^6-sulfanone]
9 | 0.021 | 0.21 | – | – | COc1cc2nccc(N3CCC4(CC3)CCN(S(C)(=N)=O)C4)c2cc1OC (stereo not drawn) [Compound 208, [8-(6,7-dimethoxyquinolin-4-yl)-2,8-diazaspiro[4.5]decan-2-yl](imino)methyl-λ^6-sulfanone]
10 | – | – | 1.1 | 55 | COc1cc2nccc(N3CCC4(CC3)CCN([S@@](C)(=N)=O)C4)c2cc1OC [Compound 208a]
11 | – | – | 0.0078 | 0.16 | COc1cc2nccc(N3CCC4(CC3)CCN([S@](C)(=N)=O)C4)c2cc1OC [Compound 208b]
12 | 0.024 | 2.5 | – | – | COc1cc2ncc(C#N)c(N3CCC4(CC3)CCN(S(C)(=N)=O)C4)c2cc1F (stereo not drawn) [Compound 210, 6-fluoro-4-{2-[imino(methyl)oxo-λ^6-sulfanyl]-2,8-diazaspiro[4.5]decan-8-yl}-7-methoxyquinoline-3-carbonitrile]
13 | 0.022 | 0.97 | – | – | COc1cc2nncc(N3CCC4(CC3)CCN(S(C)(=N)=O)C4)c2cc1OC (stereo not drawn) [Compound 211, [8-(6,7-dimethoxycinnolin-4-yl)-2,8-diazaspiro[4.5]decan-2-yl](imino)methyl-λ^6-sulfanone]
14 | – | – | 0.023 | 2.2 | COc1cc2nncc(N3CCC4(CC3)CCN([S@](C)(=N)=O)C4)c2cc1OC [Compound 211a]
15 | 0.047 | 4.4 | – | – | COc1cc2ncnc(N3CCC4(CC3)CCN(S(C)(=N)=O)C4)c2cc1Cl (stereo not drawn) [Compound 212, [8-(6-chloro-7-methoxyquinazolin-4-yl)-2,8-diazaspiro[4.5]decan-2-yl](imino)methyl-λ^6-sulfanone]
16 | 0.058 | 2.8 | – | – | COc1cc2nc(C)nc(N3CCC4(CC3)CCN(S(C)(=N)=O)C4)c2cc1OC (stereo not drawn) [Compound 213, [8-(6,7-dimethoxy-2-methylquinazolin-4-yl)-2,8-diazaspiro[4.5]decan-2-yl](imino)methyl-λ^6-sulfanone]
17 | 0.29 | 8 | – | – | COc1cccc2c(N3CC4(CCN(S(C)(=N)=O)C4)C3)ncnc12 (stereo not drawn) [Compound 217, imino[2-(8-methoxyquinazolin-4-yl)-2,6-diazaspiro[3.4]octan-6-yl]methyl-λ^6-sulfanone]
18 | 0.022 | 0.69 | – | – | COc1cc2nccc(N3CCC4(CC3)CCN(S(=N)(=O)C3CC3)C4)c2cc1F (stereo not drawn) [Compound 218, {cyclopropyl[8-(6-fluoro-7-methoxyquinolin-4-yl)-2,8-diazaspiro[4.5]decan-2-yl]imino-λ^6-sulfanyl}one]
19 | – | – | 0.0078 | 0.29 | COc1cc2nccc(N3CCC4(CC3)CCN([S@@](=N)(=O)C3CC3)C4)c2cc1F [Compound 218a]
20 | – | – | 0.071 | 1.2 | COc1cc2nncc(N3CCC4(CC3)CCN([S@](C)(=N)=O)C4)c2cc1Cl [Compound 219a]
21 | 0.25 | 11 | – | – | COc1cc2nnc(C)c(N3CCC4(CC3)CCN(S(C)(=N)=O)C4)c2cc1Cl (stereo not drawn) [Compound 220, [8-(6-chloro-7-methoxy-3-methylcinnolin-4-yl)-2,8-diazaspiro[4.5]decan-2-yl](imino)methyl-λ^6-sulfanone]
22 | 0.12 | 4.6 | – | – | CCS(=N)(=O)N1CCC2(CCN(c3ncnc4cc(OC)c(F)cc34)CC2)C1 (stereo not drawn) [Compound 221, ethyl[8-(6-fluoro-7-methoxyquinazolin-4-yl)-2,8-diazaspiro[4.5]decan-2-yl]imino-λ^6-sulfanone]
23 | 0.07 | 1.1 | – | – | COc1cccc2c(N3CC4(CCN(S(C)(=N)=O)C4)C3)c(C#N)cnc12 (stereo not drawn) [Compound 222, 4-{6-[imino(methyl)oxo-λ^6-sulfanyl]-2,6-diazaspiro[3.4]octan-2-yl}-8-methoxyquinoline-3-carbonitrile]
24 | – | – | 0.034 | 1.2 | COc1cccc2c(N3CC4(CCN([S@@](C)(=N)=O)C4)C3)c(C#N)cnc12 [Compound 222a]
25 | 0.11 | 3.2 | – | – | COc1cccc2c(N3CCC4(C3)CN(S(C)(=N)=O)C4)ncnc12 (stereo not drawn) [Compound 223, imino[6-(8-methoxyquinazolin-4-yl)-2,6-diazaspiro[3.4]octan-2-yl]methyl-λ^6-sulfanone]
26 | – | – | 0.047 | 3.1 | COc1cccc2c(N3CCC4(C3)CN([S@](C)(=N)=O)C4)ncnc12 [Compound 223a]
27 | – | – | 19 | 460 | COc1cccc2c(N3CCC4(C3)CN([S@@](C)(=N)=O)C4)ncnc12 [Compound 223b]
28 | 0.019 | 1.1 | – | – | COc1cc2ncnc(N3CCC4(CC3)CCN(S(C)(=N)=O)C4)c2cc1F (stereo not drawn) [Compound 224, [8-(6-fluoro-7-methoxyquinazolin-4-yl)-2,8-diazaspiro[4.5]decan-2-yl](imino)methyl-λ^6-sulfanone]
29 | 0.096 | 6.8 | – | – | COc1cc2nncc(N3CCC4(CC3)CCN(S(=N)(=O)C3CC3)C4)c2cc1Cl (stereo not drawn) [Compound 225, {[8-(6-chloro-7-methoxycinnolin-4-yl)-2,8-diazaspiro[4.5]decan-2-yl](cyclopropyl)imino-λ^6-sulfanyl}one]
30 | 1.2 | 43 | – | – | COc1cc2nccc(N3CCC4(CC3)CCN(S(C)(=N)=O)C4)c2cc1C#N (stereo not drawn) [Compound 226, 4-{2-[imino(methyl)oxo-λ^6-sulfanyl]-2,8-diazaspiro[4.5]decan-8-yl}-7-methoxyquinoline-6-carbonitrile]

From patent US11780849B2, “Imino sulfanone inhibitors of ENPP1” (Volastra Therapeutics, Inc., priority 2020, dated 2023)
